Common to all, as to test: NCI anticancer screen, dose series, 48 h
The test system of assay [1] is ACHN.
In assay [2] the test system is HCC 2998.
For assay [3], the system named is HCT-116.
Assay [4] concerns HL-60.
Assay [5] relates to HOP-92.
The subject of assay [6] is LOX IMVI.
In assay [7] the test system is MDA-MB-435.
Assay [8] deals with MDA-N.
The subject of assay [9] is MOLT-4.
The test system of assay [10] is NCI-H226.
Assay [11] has as its system NCI-H23.
The test system of assay [12] is SF-539.
For assay [13], the system named is SK-MEL-2.
The subject of assay [14] is SK-OV-3.
In assay [15] the test system is SN12C.
Assay [16] relates to SNB-19.
The test system of assay [17] is SNB-75.
The subject of assay [18] is U-251.
Assay [19] has as its system CCRF-CEM.

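Results reflect a 48-hour exposure of cells in 96-well plates to compound at five concentrations. At the GI50, growth is halved.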 The source made the active and inactive calls. Cut-off read from the data, not from the text of the source: active = GI50 up to about 1.1 µM and inactive = higher.

`Sc1nc2c(c(-c3nc(S)nc4c3CCCCCCCCCC4)n1)CCCCCCCCCC2`: the GI50 in assay [1], in assay [2], in assay [3], in assay [4], in assay [5] and in [6] was > 100 µM (inactive) throughout. Also, the GI50 in assay [7], in [8], in assay [9], in [10], in assay [11] and in [12] was > 100 µM (inactive) each time. In addition, the GI50 in [13], in [14], in assay [15], in assay [16], in assay [17] and in [18] was > 100 µM (inactive) in each case.

As to `CC(C)(C)c1ccc(C(C)(C)C)c(N2C(=O)[C@@H]3[C@@H]4C=C[C@@H](C4)[C@]3(C)C2=O)c1`, the GI50 was 21.5 µM (inactive) in assay [1]; 7.38 µM (inactive) in assay [19]; 15.5 µM (inactive) in assay [2]; 15.5 µM (inactive) in assay [3]; 16.4 µM (inactive) in [4]; 0.869 µM (active) in assay [5]. Also, the GI50 in assay [6] is 13.9 µM (inactive); in assay [7], 15.5 µM (inactive); in assay [8], 14 µM (inactive); in assay [9], 14.9 µM (inactive); in assay [10], 26.9 µM (inactive); in assay [11], 45.1 µM (inactive). Moreover, the GI50 is 51.5 µM (inactive) in assay [12]; 20.6 µM (inactive) in [13]; > 100 µM (inactive) in [14]; 20.1 µM (inactive) in [15]; > 100 µM (inactive) in [16]; 18.7 µM (inactive) in assay [18].

For the compound `Cc1cc2nc(C=C(C(F)(F)F)C(F)(F)F)sc2cc1C`, the GI50 was 2.99 µM (inactive) in assay [1]; 0.0333 µM (active) in assay [19]; 3.18 µM (inactive) in assay [2]; 1.1 µM (active) in assay [3]; 0.482 µM (active) in assay [4]; 4.66 µM (inactive) in [5]. Further, the GI50 was 0.294 µM (active) in assay [6]; 1.21 µM (inactive) in assay [7]; 1.44 µM (inactive) in assay [8]; 0.11 µM (active) in [9]; 1.21 µM (inactive) in assay [10]; 1.46 µM (inactive) in assay [11]. Besides, the GI50 in [12] was 1.54 µM (inactive); in assay [13] it was 1.73 µM (inactive); in [14] it was 7.62 µM (inactive); in [15], 0.501 µM (active); in assay [16], 3.44 µM (inactive); in assay [17] it was 1.16 µM (inactive). For the same compound, in assay [18], the GI50 was 0.871 µM (active).

Take `CCn1c(CCl)nc2c1C(=O)c1ccccc1C2=O`: the GI50 in assay [1] is 3.72 µM (inactive); in assay [19] it was 0.171 µM (active); in [2] it was 1.56 µM (inactive); in assay [3], 2.13 µM (inactive); in assay [4], 2.43 µM (inactive); in assay [5] it was 2.14 µM (inactive). Also, the GI50 was 1.69 µM (inactive) in [7]; 2.17 µM (inactive) in assay [8]; 0.356 µM (active) in [9]; 0.225 µM (active) in assay [10]; 1.4 µM (inactive) in assay [11]; 2.23 µM (inactive) in assay [12]. For the same compound, the GI50 in [14] is 0.515 µM (active); in [15] it was 1.6 µM (inactive); in assay [16], 1.87 µM (inactive); in assay [17], 1.58 µM (inactive); in assay [18], 1.71 µM (inactive).

With `CCCCCCCC1C(C)c2c([nH]c3ccccc23)C2C(=O)N(c3ccc(OC)cc3)C(=O)C21` (stereo not given), the GI50 in assay [1] is 2.66 µM (inactive); in assay [19], 2.61 µM (inactive); in assay [2] it was 7.6 µM (inactive); in assay [3], 1.79 µM (inactive); in [4], 1.95 µM (inactive); in assay [5], > 10 µM (inactive). Moreover, the GI50 in assay [7] is 3.33 µM (inactive); in assay [8], 4.22 µM (inactive); in [9], 3.2 µM (inactive); in [10], 3.1 µM (inactive); in assay [11], 2.39 µM (inactive); in assay [12], 2.69 µM (inactive). Also, the GI50 is > 6.59 µM (inactive) in [13]; 4.68 µM (inactive) in assay [14]; 2.59 µM (inactive) in assay [15]; 3.31 µM (inactive) in assay [16]; 1.95 µM (inactive) in [17]; 1.92 µM (inactive) in assay [18].

Take `CN1COCc2cc3cc4c(cc3nc21)OCCO4`: the GI50 is > 100 µM (inactive) in assay [1]; 81.7 µM (inactive) in assay [19]; > 100 µM (inactive) in assay [2]; 93.3 µM (inactive) in assay [3]; 38.8 µM (inactive) in assay [5]; > 100 µM (inactive) in assay [6]. Besides, the GI50 is > 100 µM (inactive) in assay [7]; > 100 µM (inactive) in [8]; 11.5 µM (inactive) in assay [9]; > 100 µM (inactive) in [10]; > 100 µM (inactive) in [12]; > 100 µM (inactive) in assay [13]. Further, the GI50 in [14], in [15], in [16], in [17] and in [18] was > 100 µM (inactive) throughout.

With `CC1(C)OCC2OC3([C@@H]4OC(C)(C)O[C@H]4CO)OC(C)(C)OC3C2O1` (stereo not given in full), the GI50 in [1], in [19], in [2], in assay [3], in [5] and in assay [6] was > 100 µM (inactive) each time. The GI50 in assay [7], in assay [8], in assay [9], in assay [10], in assay [11] and in assay [12] was > 100 µM (inactive) throughout. For the same compound, the GI50 in [13], in assay [15], in assay [16], in assay [17] and in assay [18] was > 100 µM (inactive) in each case.

Consider `C/C=C/[P+](c1ccccc1)(c1ccccc1)c1ccccc1`, for which the GI50 in assay [1] is 4.56 µM (inactive); in assay [19] it was 0.474 µM (active); in assay [2] it was 0.24 µM (active); in assay [3], 0.433 µM (active); in [4] it was 0.78 µM (active); in assay [5] it was 0.738 µM (active). Moreover, the GI50 in assay [6] was 1.34 µM (inactive); in assay [7], 0.277 µM (active); in assay [8] it was 0.35 µM (active); in assay [9], 2.42 µM (inactive); in assay [10], 3.57 µM (inactive); in assay [11], 2.06 µM (inactive). The GI50 was 1.48 µM (inactive) in assay [12]; 1.82 µM (inactive) in [13]; 1.42 µM (inactive) in [14]; 1.79 µM (inactive) in assay [15]; 0.299 µM (active) in [16]; 3.48 µM (inactive) in assay [17]. Further, the GI50 in [18] was 0.102 µM (active).

For the compound `c1ccc2c(C3CCN(CCN4CCOCC4)C3)c[nH]c2c1` (stereo not given), the GI50 in assay [1] is > 100 µM (inactive); in [19], > 100 µM (inactive); in assay [2] it was 47 µM (inactive); in assay [3], > 100 µM (inactive); in assay [4], > 100 µM (inactive); in [5], > 100 µM (inactive). Also, the GI50 in assay [6], in assay [7], in assay [8], in [11], in assay [13] and in [14] was > 100 µM (inactive) in each case. Further, the GI50 in [15], in assay [16], in assay [17] and in [18] was > 100 µM (inactive) each time.

Turning to `COc1ccc2nc3n(c2c1)CCc1cc(OC)c(OC)cc1-3`, the GI50 was 81.5 µM (inactive) in [1]; 49.1 µM (inactive) in assay [19]; 26 µM (inactive) in assay [2]; 47.8 µM (inactive) in assay [3]; 44.6 µM (inactive) in [4]; 56 µM (inactive) in assay [5]. Moreover, the GI50 was 45.8 µM (inactive) in [6]; 34.5 µM (inactive) in assay [7]; 44 µM (inactive) in [8]; 54.3 µM (inactive) in [10]; 40.1 µM (inactive) in assay [11]; 88.9 µM (inactive) in assay [12]. In addition, the GI50 is > 100 µM (inactive) in [13]; > 100 µM (inactive) in assay [14]; 63.1 µM (inactive) in assay [15]; 99.5 µM (inactive) in assay [16]; 40.7 µM (inactive) in assay [17]; 60.8 µM (inactive) in assay [18].

For `O=C(O)CSc1nnc(CCCCCCCCc2nnc(SCC(=O)O)o2)o1`, the GI50 in [1] was > 100 µM (inactive); in [19], > 100 µM (inactive); in assay [2], > 100 µM (inactive); in [3], > 100 µM (inactive); in [4], > 100 µM (inactive); in assay [5], 79.8 µM (inactive). Besides, the GI50 in assay [6], in assay [7], in [8], in assay [9], in [10] and in assay [11] was > 100 µM (inactive) in each case. Moreover, the GI50 in assay [13] is > 100 µM (inactive); in assay [14] it was > 100 µM (inactive); in assay [15] it was > 100 µM (inactive); in assay [16] it was > 100 µM (inactive); in [17], 21.9 µM (inactive); in assay [18], > 100 µM (inactive).

Source of the values: ChEMBL document CHEMBL1201862, “PubChem BioAssay data set” (2004).
